Results as given in patent publication US11672815B2, “Composition for inhibiting immune cell proliferation comprising sialyllactose or derivative thereof and method thereof” (CUPIONE CO., LTD., priority 2017, dated 2023).

Key:
Sox-9 = Sox-9 reporter gene luciferase activity in chondrocytes; format: cell-based, mouse; settings: co-treated with 5 ng/ml IL-1β and 0 to 250 μM for 24 hrs
Method: A Sox-9 reporter gene was prepared by inserting 48-bp Sox9 binding site in the first intron of human Col2a1 gene into the upstream of SV40 promoter in pGL3 vector (Zhou G et al., J Biol Chem 1998, 12, 14989-97).
1 μg of the Sox-9 reporter gene was transfected into chondrocytes using lipofectamine 2000 (Invitrogen) for 3 hrs. The transfected cells were co-treated with 5 ng/ml interleukin 1 beta (IL-1β) and 0 μM, 10 μM, 50 μM, 100 μM, or 250 μM of 3′- or 6′-sialyllactose for 24 hrs, and then chondrocytes were recovered to examine Sox-9 activity by luciferase activity.

chondrocytes = assay: Cytotoxicity of sialyllactose on chondrocytes (EZ-Cytox cell viability assay); format: cell-based, mouse; settings: 0 μM, 10 μM, 50 μM, 100 μM, or 250 μM, 24 hrs
Method: Chondrocytes were obtained from cartilage tissues derived from femoral heads, femoral condyles, and tibial plateaus of normal mouse at 5 days after birth. The obtained chondrocytes were cultured in DMEM medium (Gibco, USA) containing 10% (v/v) fetal bovine serum (Gibco, USA), 50 μg/ml of streptomycin (Sigma-Aldrich, USA) and 50 unit/ml of penicillin (Sigma-Aldrich, USA).
In order to confirm that 3′- or 6′-sialyllactose has no cytotoxicity on chondrocytes, chondrocytes were cultured in a 96-well culture plate at a density of 9×10^3 cells/well, and then treated with 3′- or 6′-sialyllactose (Genechem Inc., Daejeon, Korea) at a concentration of 0 μM, 10 μM, 50 μM, 100 μM, or 250 μM, followed by incubation in a 5% CO2 incubator at 37° C. for 24 hrs. Cytotoxicity of 3′- or 6′-sialyllactose on chondrocytes was confirmed by measuring absorbance at 450 nm using an EZ-Cytox Cell viability assay kit (DoGen, Korea).

Mmp13 = Mmp13 expression in IL-1β-treated chondrocytes (qRT-PCR, Western blotting); format: cell-based, mouse; settings: 5 ng/ml of IL-1β, 0 to 250 μM, 24 hrs; concentration-dependent
Method: (§1) IL-1β is a representative inflammatory cytokine that decreases Col2a1 essential for cartilage formation in chondrocytes and also promotes articular inflammation and cartilage tissue destruction. Chondrocytes were treated with 5 ng/ml of IL-1β by time, and then qRT-PCR was performed using conditions and primers of the following Table 1 according to the method of Example 2-1 to examine inhibition of Mmp3 and Mmp13 expression.
(§2) Secretory proteins such as Mmp3 and Mmp13 were allowed to react at 0° C. for 20 min after reacting 900 μl of serum-free medium (conditioned medium) with 100 μl of trichloroacetic acid (TCA). Next, a supernatant was discarded by centrifugation at 12,000 rpm and 4° C. for 10 min, and then reacted with 500 μl of 100% cold acetone at […] for 1 hr. The sample reacting with 100% acetone was centrifuged to discard a supernatant, and proteins were finally precipitated and detected. Western blotting was performed using anti-Mmp3 antibody (Abcam) and anti-Mmp13 antibody (Abcam), and thickness and concentration of Western blot bands were measured by a computer program and relative values thereof were determined by densitometry.

[1] = system: type II collagen (Col2a1); assay: Col2a1 expression in chondrocytes (qRT-PCR, Western blotting); format: cell-based, mouse
Method: In order to examine effects of 3′- or 6′-sialyllactose on cartilage formation and regeneration, the chondrocytes obtained in Example 1 were incubated for 36 hrs and then treated with 3′- or 6′-sialyllactose at a concentration of 0 μM, 10 μM, 50 μM, 100 μM, or 250 μM, followed by further incubation for 36 hrs.
Next, in order to perform qRT-PCR, RNA was extracted from the chondrocytes using a TRI reagent (Molecular Research Center Inc.), and cDNA obtained by reverse transcription of RNA was amplified by PCR using primers of SEQ ID NOS: 1 and 2 under condition of annealing temperature of 55° C. to examine expression of type II collagen (Col2a1, 173 bp) which is essential for cartilage formation. As a control group, Gapdh (450 bp, annealing temperature of 58° C.) was examined by using primers of SEQ ID NOS: 3 and 4.
Further, a whole cell lysate was extracted from the chondrocytes using a lysis buffer (150 mM NaCl, 1% NP-40, 50 mM Tris, 5 mM NaF) containing protease and phosphatase inhibitor cocktails (Roche), and Col2a1 expression in the cells was examined. Western blotting was performed using anti-Col2a1 antibody (Millipore) and anti-Erk antibody (Cell signaling), and thickness and concentration of Western blot bands were measured by a computer program and relative values thereof were determined by densitometry (FIGS. 4A and 4B).
IL-1β is a representative inflammatory cytokine inhibiting Col2a1 expression in chondrocytes. Chondrocytes were incubated for 36 hrs, and then treated with 5 ng/ml of IL-1β (GeneScript, USA) for 24 hrs to confirm that Col2a1 expression was decreased by IL-1β.
In order to examine whether the decreased Col2a1 expression is increased again in chondrocytes by 3′- or 6′-sialyllactose, qRT-PCR and Western blotting were performed in the same manner as in Example 2-1.

Mmp3 = Mmp3 expression in IL-1β-treated chondrocytes (qRT-PCR, Western blotting); format: cell-based, mouse; settings: 5 ng/ml of IL-1β, 0 to 250 μM, 24 hrs; concentration-dependent
Method: as §1, §2

Mmp3, Mmp13, and COX2 = assay: Mmp3, Mmp13 and COX2 expression in IL-1β-treated mouse FLS; format: cell-based
Method: Anti-chemokine and anti-inflammatory effects of 3′-sialyllactose were examined. First, purity of mouse FLS was examined by FACS analysis, and then no effects of 3′-sialyllactose on FLS proliferation and cytotoxicity were examined by WST-1 assay (see FIGS. 14A-A to 14A-C). […] Therefore, in a subsequent in vitro experiment, 3′-sialyllactose was used at a concentration of 0 μM to 250 μM. In order to examine effects of 3′-sialyllactose on IL-1β-, IL-6-, IL-17-, and TNF-α-induced chemokines (e.g., CCL2, CCL5, CCL7, CXCL1, CXCL2, and CXCL5), pro-inflammatory cytokines (IL-1, IL-6, and TNF-α), and COX2 expression, IL-1β-, IL-6-, IL-17-, and TNF-α-stimulated human RA-FLS and mouse FLS were treated with 3′-sialyllactose (100 μM or 250 μM) for 24 hrs.
FIGS. 14A-A and 14A-B show FACS results of analyzing marker expression on the FLS surfaces in a mouse according to passages (FIG. 14A-A: CD90.2; FIG. 14A-B: CD14), and a graph of cytotoxicity confirmed by WST-1 assay (FIG. 14A-C), and FIG. 14B is a graph showing Mmp3, Mmp13, and COX2 expression levels according to lactose, sialic acid, and 3′-sialyllactose in IL-1β-treated mouse FLS.

Compound	Sox-9 activity decreased by IL-1β (Sox-9)	cytotoxicity on chondrocytes (chondrocytes)	Mmp13 expression increased by IL-1β in chondrocytes (Mmp13)	Col2a1 expression in chondrocytes ([1]; 0 to 250 μM, 36 hrs)	Col2a1 expression suppressed by IL-1β in chondrocytes ([1]; 5 ng/ml of IL-1β)	Mmp3 expression increased by IL-1β in chondrocytes (Mmp3)	Mmp3, Mmp13, and COX2 expression levels, control groups for 3′-sialyllactose (Mmp3, Mmp13, and COX2)
CC(=O)N[C@H]1C([C@H](O)[C@H](O)CO)O[C@@](OCC2O[C@@H](O[C@@H]3C(CO)OC(O)C(O)[C@H]3O)C(O)[C@@H](O)[C@H]2O)(C(=O)[O-])C[C@H]1O.[Na+] (stereo partly shown) [6′-sialyllactose]	restored	did not show cytotoxicity	decreased	increased	gradually increased	decreased	
OC[C@H]1O[C@@H](O[C@H]2[C@H](O)[C@@H](O)C(O)O[C@@H]2CO)[C@H](O)[C@@H](O)[C@H]1O (stereo partly shown) [lactose]							no significant difference
